{
  "source": "patent US20100249125A1",
  "about": "“INHIBITION OF PROSTGLANDIN E2 RECEPTORS FOR THE TREATMENT OF ENDOMETRIOSIS” (THE TEXAS A&M UNIVERSITY SYSTEM, priority 2009, published 2010)",
  "key": {"[1]": {"tested_on": "human endometriotic stromal cells 22B", "assay": "Cell viability assay (WST-1)", "type": "cell-based", "details": "22B cells; AH6809 75 μM, AH23848 50 μM, alone or combined; vs control", "description": "(§1) Cell Viability Assay: The 12Z and 22B cells (1.25×10^4 cells/well) were cultured in DMEM/F12 with 10% FBS in 96-well plates and treated as described previously. At the end of the experiments the cell viability (metabolic activity) was determined using a cell proliferation assay kit WST-1 according to the manufacturer's (Roche Applied Sciences) instructions. Metabolic activity recorded in control cells was considered as 100%. Data were expressed as mean±SEM of three independent experiments conducted in triplicate."}, "[2]": {"tested_on": "human endometriotic epithelial cells 12Z", "assay": "Cell viability assay (WST-1)", "type": "cell-based", "details": "12Z cells; AH6809 75 μM, AH23848 50 μM, alone or combined; vs control", "description": "as §1"}, "[3]": {"tested_on": "human endometriotic stromal cells 22B", "assay": "TUNEL apoptosis assay (flow cytometry, fluorescence microscopy)", "type": "cell-based", "details": "22B cells, 24 h; for Induced apoptosis (TUNEL, flow cytometry): AH6809 75 μM, AH23848 50 μM, alone or combined", "description": "(§2) These well-characterized 12Z and 22B cells were cultured in DMEM/F12 without special steroid treatment containing 10% fetal bovine serum (FBS) and penicillin (100 U/ml), streptomycin (100 μg/ml) and amphotericin-B 2.5 μg/ml in a humidified 5% CO2 and 95% air at 37° C. as we described previously (11, 39). At 70-80% confluency the cells were cultured in DMEM/F12 with 2% dextran-charcoal-treated fetal bovine serum (DC-FBS) and treated with EP inhibitors (EP-I) for EP1 (SC19220-100 100 μM), EP2 (AH6809-75 μM) and/or EP4 (AH23848-50 μM) for 24 h.\n(§3) EP2/EP4 small interfering RNA (siRNA): 12Z and 22B cells (3.0×10^5/well) were cultured in antibiotic-free DMEM/F12 with 10% FBS in six-well tissue culture plates. At 70-80% confluency, cells were used for EP2, EP4 or EP2/EP4 knock-down experiments using SMART-pool siRNA duplex delivered by DharmaFect-1 as described previously (11) and per manufacturer's instructions (Dharmacon Inc, Lafayette, Colo.). As an internal control, MOCK siRNA was used. According to the manufacturer's instructions, SMARTpool siRNA were consisted of at least four individual siRNA duplexes targeted against a specific gene and designed using a bioinformatics technology known as SMARTselection. […] The inventors used SMARTpool siRNA in order to use more than one siRNA duplex from different regions of the gene of interest to avoid non-specific indirect effects of single siRNA duplex to a single region of the target gene. Briefly, siRNA duplexes (100 nM/well) and DharmaFect-1 (3 μl/well) were diluted in 50 μl antibiotic and serum-free DMEM/F12 medium separately and mixed gently and incubated for 5 min at room temperature. Afterwards, EP2, EP4 or EP2/EP4 siRNA and DharmaFect-1 were mixed (total volume 100 μl) and incubated at room temperature for 20 min. Then, 100 μl siRNA: DharmaFect-1 complex was diluted with 2 ml antibiotic-free media with 10% FBS and added to the well. After 24 h, the medium was replaced with fresh DMEM/F12 with 10% FBS and incubated for 24 h. Fluorescence labeled siGLO RISC-free siRNA was transfected separately and transfection efficiency was estimated using a fluorescence microscope. Transfection efficiency more than 80% was considered as optimal conditions for further experiments. Efficiency of siRNA on silencing of EP2 and EP4 genes and proteins was assessed by RT-PCR and western blot, respectively 72 h post-transfection knock-down efficiency was 70-80% in both 12Z and 22B cells.\n(§4) Terminal deoxynucleotide transferase dUTP nick end labeling (TUNEL) assay: Non-adherent and adherent cells were harvested, mixed together, and resuspended at the concentrations of 1×10^6 cells/ml. Nicks in the DNA were determined by terminal deoxynucleotidyl transferase (TdT) and 5-bromo-2′-deoxyuridine 5′-triphosphate (BrdUTP) labeling using APO-BrdU TUNEL Assay Kit. Detection of BrdU incorporation at DNA break sites was achieved through Alexa Fluor 488 dye-labeled anti-BrdU antibody. The staining procedures were performed as recommended by manufacturers. Numbers of apoptotic cells were analyzed by a flowcytometer (FACSCaliber, Becton Dickinson, San Jose, Calif.) using Cell Quest software. In addition, the presence of TUNEL labeled DNA fragments were determined by fluorescence microscopy. Digital images were captured using a Zeiss Axioplan 2 Research Microscope with an Axiocam HR digital camera."}, "[4]": {"tested_on": "human endometriotic epithelial cells 12Z", "assay": "TUNEL apoptosis assay (flow cytometry, fluorescence microscopy)", "type": "cell-based", "details": "12Z cells, 24 h; for Induced apoptosis (TUNEL, flow cytometry): AH6809 75 μM, AH23848 50 μM, alone or combined", "description": "as §2, §3, §4"}, "[5]": {"tested_on": "human endometriotic stromal cells 22B", "assay": "Cell proliferation assay (Coulter counter)", "type": "cell-based", "details": "22B cells; 0-200 concentration series", "description": "as §3\n(§5) Cell Proliferation Assay: The 12Z and 22B cells (1×10^5/well) were cultured in DMEM/F12 with 10% FBS in six-well plates. At 70%-80% confluency the cells were cultured in DMEM/F12 with 2% dextran charcoal-treated FBS and treated with inhibitors for EP1 (SC19220; […]), EP2 (AH6809; […]), EP4 (AH23848; […]), or a combination of EP2 (AH6809; […]) and EP4 (AH23848; […]) for 36 hours. The concentrations for each inhibitor was determined by dose-response studies using […] and an optimal concentration was selected based on its effects on proliferation of human endometriotic cells (FIGS. 6A-6B). These inhibitors competitively bind with respective receptors and inhibit their functions (40-42). For the siRNA study, 24 hours after transfection of siRNA the medium was replaced and the cells were cultured in 2% dextran charcoal-treated FBS, which was considered as time 0 hour, and cell proliferation was estimated at 36 hours. The number of cells was counted using a Coulter counter (11) and considered as 100% present in control. Data were expressed as mean±SEM of three independent studies conducted in duplicate."}, "[6]": {"tested_on": "human endometriotic epithelial cells 12Z", "assay": "Cell proliferation assay (Coulter counter)", "type": "cell-based", "details": "12Z cells; 0-200 concentration series", "description": "as §3, §5"}, "[7]": {"assay": "Cell viability assay (WST-1)", "type": "cell-based, human", "details": "human, AH6809 75 μM, AH23848 50 μM, alone or combined, vs control, read-out: Decrease of cell viability", "description": "as §1"}, "[8]": {"tested_on": "human immortalized endometriotic epithelial cells 12Z and stromal cells 22B", "details": "associated with decreased PGE2 production; cited from earlier work"}, "endometriotic implant": {"tested_on": "endometriotic implant", "details": "hamster model; through caspase-3 dependent apoptosis; cited from earlier work"}, "estrogen receptor": {"tested_on": "estrogen receptor", "details": "treatment of endometriosis in women; cited from earlier work"}, "[9]": {"tested_on": "COX-2 along with p450 aromatase", "details": "3.75 mg, for 1 month; eutopic endometria; cited from earlier work"}, "endometriotic lesions": {"tested_on": "endometriotic lesions", "details": "nude mice model; cited from earlier work"}, "[10]": {"details": "25 mg/d for 6 months, women with endometriosis; cited from earlier work"}},
  "note": "“Also recorded” adds a separate entry of the source. Like-named read-outs stand apart in the source and are kept apart here.",
  "data": [
    {"smiles": "O=C(O)CC/C=C\\CC[C@H]1[C@H](N2CCOCC2)C(=O)C[C@H]1OCc1ccc(-c2ccccc2)cc1", "note": "(relative stereo) [AH23848, (4Z)-7-[(rel-1S,2S,5R)-5-((1,1′-Biphenyl-4-yl)methoxy)-2-(4-morpholinyl)-3-oxocyclopentyl]-4-heptenoic acid]", "values": [
      {"measurement": "Decrease of cell viability", "setting": "[1]", "value": "~45", "unit": "%"},
      {"measurement": "Decrease of cell viability", "setting": "[2]", "value": "~55", "unit": "%"},
      {"measurement": "Induced apoptosis (TUNEL, flow cytometry)", "setting": "[3]", "value": "~45", "unit": "%"},
      {"measurement": "Induced apoptosis (TUNEL, flow cytometry)", "setting": "[4]", "value": "~55", "unit": "%"},
      {"measurement": "Proliferation, dose response experiment", "setting": "[5]", "value": "decreased (P<0.05) proliferation"},
      {"measurement": "Proliferation, dose response experiment", "setting": "[6]", "value": "decreased (P<0.05) proliferation"}
    ]},
    {"smiles": "CC(C)Oc1ccc2c(=O)c3cc(C(=O)O)ccc3oc2c1", "note": "[AH6809, 6-Isopropoxy-9-oxoxanthene-2-carboxylic acid]", "values": [
      {"measurement": "cytotoxicity at 75 μM", "setting": "[7]; 12Z endometriotic epithelial cells, 12Z cells", "value": "~55", "unit": "%"},
      {"measurement": "cytotoxicity at 75 μM", "setting": "[7]; 22B endometriotic stromal cells, 22B cells", "value": "~45", "unit": "%"},
      {"measurement": "Induced apoptosis (TUNEL, flow cytometry)", "setting": "[3]", "value": "~45", "unit": "%"},
      {"measurement": "Induced apoptosis (TUNEL, flow cytometry)", "setting": "[4]", "value": "~55", "unit": "%"},
      {"measurement": "Proliferation, dose response experiment", "setting": "[5]", "value": "decreased (P<0.05) proliferation"},
      {"measurement": "Proliferation, dose response experiment", "setting": "[6]", "value": "decreased (P<0.05) proliferation"}
    ]},
    {"smiles": "CS(=O)(=O)Nc1ccc([N+](=O)[O-])cc1OC1CCCCC1", "note": "[NS-398]", "values": [
      {"measurement": "Survival, migration and invasion", "setting": "[8]", "value": "prevents survival, migration, and invasion; also recorded: prevents survival, migration and invasion"},
      {"measurement": "Regression of endometriotic implant", "setting": "endometriotic implant", "value": "induced regression of endometriotic implant"}
    ]},
    {"smiles": "CC(=O)NNC(=O)N1Cc2ccccc2Oc2ccc(Cl)cc21", "note": "[SC19220]", "values": [
      {"measurement": "Induction of apoptosis (TUNEL)", "setting": "[3]; SC19220 100 μM", "value": "did not induce apoptosis"},
      {"measurement": "Induction of apoptosis (TUNEL)", "setting": "[4]; SC19220 100 μM", "value": "did not induce apoptosis"},
      {"measurement": "Proliferation, dose response experiment", "setting": "[5]", "value": "did not decrease proliferation"},
      {"measurement": "Proliferation, dose response experiment", "setting": "[6]", "value": "did not decrease proliferation"}
    ]},
    {"smiles": "C[C@]12CC[C@@H]3c4ccc(O)cc4C[C@@H](CCCCCCCCC[S+]([O-])CCCC(F)(F)C(F)(F)F)[C@H]3[C@@H]1CC[C@@H]2O", "note": "(some centres unmarked) [fulvestrant]", "values": [
      {"measurement": "Outcome of clinical trial", "setting": "estrogen receptor", "value": "discontinued due to unfavorable outcomes"}
    ]},
    {"smiles": "CCNC(=O)[C@@H]1CCCN1C(=O)[C@H](CCCNC(=N)N)NC(=O)[C@H](CC(C)C)NC(=O)[C@@H](CC(C)C)NC(=O)[C@H](Cc1ccc(O)cc1)NC(=O)[C@H](CO)NC(=O)[C@H](Cc1c[nH]c2ccccc12)NC(=O)[C@H](Cc1c[nH]cn1)NC(=O)[C@@H]1CCC(=O)N1", "note": "[leuprolide acetate]", "values": [
      {"measurement": "Expression of COX-2 and p450 aromatase", "setting": "[9]", "value": "decreased expression of COX-2 along with p450 aromatase"}
    ]},
    {"smiles": "CS(=O)(=O)Nc1ccc([N+](=O)[O-])cc1Oc1ccccc1", "note": "[nimesulide]", "values": [
      {"measurement": "Number and size of endometriotic lesions", "setting": "endometriotic lesions", "value": "failed to decrease number and size of endometriotic lesions"}
    ]},
    {"smiles": "O=C(c1ccc(OCCN2CCCCC2)cc1)c1c(-c2ccc(O)cc2)sc2cc(O)ccc12", "note": "[raloxifene]", "values": [
      {"measurement": "Outcome of clinical trial", "setting": "estrogen receptor", "value": "discontinued due to unfavorable outcomes"}
    ]},
    {"smiles": "CS(=O)(=O)c1ccc(C2=C(c3ccccc3)C(=O)OC2)cc1", "note": "[rofecoxib]", "values": [
      {"measurement": "Pelvic pain symptoms", "setting": "[10]", "value": "effectively suppressed the pelvic pain symptoms"}
    ]}
  ]
}
